Experimental findings from ChEMBL document CHEMBL1134123, “Potent nonpeptide GnRH receptor antagonists derived from substituted indole-5-carboxamides and -acetamides bearing a pyridine side-chain terminus” (Bioorg Med Chem Lett, 2001) are described below.

In assay [1] the target is T1, Gonadotropin-releasing hormone receptor (Rattus norvegicus, UniProt P30969).
T1 sequence (P30969 whole entry): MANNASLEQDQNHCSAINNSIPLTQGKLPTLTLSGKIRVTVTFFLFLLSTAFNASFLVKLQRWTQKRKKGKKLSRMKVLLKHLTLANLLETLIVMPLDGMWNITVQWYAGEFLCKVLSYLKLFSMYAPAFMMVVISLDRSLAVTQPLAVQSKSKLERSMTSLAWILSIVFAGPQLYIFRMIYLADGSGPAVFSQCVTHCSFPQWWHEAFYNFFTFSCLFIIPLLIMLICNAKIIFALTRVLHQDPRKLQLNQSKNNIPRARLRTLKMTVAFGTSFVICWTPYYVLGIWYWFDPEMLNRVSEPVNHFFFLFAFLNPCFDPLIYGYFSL
Nature of the assay: Inhibition of GnRH-stimulated luteinizing hormone (LH) release in rat pituitary cells. The format is functional, cell-based, Pituitary gland cell.

In assay [2] the target is T2, Gonadotropin-releasing hormone receptor (Homo sapiens, UniProt P30968).
T2 sequence (P30968 whole entry): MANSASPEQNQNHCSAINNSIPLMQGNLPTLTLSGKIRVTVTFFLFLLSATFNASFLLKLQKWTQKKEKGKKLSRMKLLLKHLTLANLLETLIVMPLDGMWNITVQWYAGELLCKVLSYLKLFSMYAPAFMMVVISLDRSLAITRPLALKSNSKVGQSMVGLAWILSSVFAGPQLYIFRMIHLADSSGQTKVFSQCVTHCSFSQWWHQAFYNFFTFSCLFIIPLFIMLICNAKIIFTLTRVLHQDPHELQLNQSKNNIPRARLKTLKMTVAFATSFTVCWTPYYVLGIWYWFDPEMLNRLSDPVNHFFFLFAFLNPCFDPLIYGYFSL
Briefly: Inhibition of [125I]buserelin binding to human Gonadotropin-releasing hormone receptor.

For assay [3], the target named is T2, Gonadotropin-releasing hormone receptor. Briefly: Inhibition of GnRH-stimulated phosphatidylinositol (PI) hydrolysis in cloned chinese hamster ovary (CHO) cells expressing human GnRH receptor. The assay is classed as functional, cell-based.
The target of assay [4] is T1, Gonadotropin-releasing hormone receptor. Nature of the assay: Inhibition of [125I]buserelin binding to rat Gonadotropin-releasing hormone receptor.
For assay [5] the target is unchanged. Briefly: Compound tested for the inhibition of GnRH-stimulated luteinizing hormone (LH) release in rat pituitary cells. The assay is classed as functional, cell-based, Pituitary gland cell.
Assay [6] addresses Gonadotropin-releasing hormone receptor (Homo sapiens) (UniProt P30968). Nature of the assay: Inhibition of [125I]buserelin binding to human Gonadotropin-releasing hormone receptor.

Regarding `CCN(C(=O)c1ccc2[nH]c(-c3cc(C)cc(C)c3)c(CCNCCCCc3cccnc3)c2c1)C1CCCCC1`, the IC50 (in general, the concentration that inhibits the measured activity by half) in assay [1] was 140 nM; in assay [2], 2.3 nM; in assay [3], 16 nM; in assay [4] it was 0.2 nM.

Take `Cc1cc(C)cc(-c2[nH]c3ccc(C(=O)N(CC(C)C)CC(C)C)cc3c2CCNCCCCc2cccnc2)c1`: the IC50 in assay [1] was 150 nM; in assay [2] it was 5 nM; in assay [3] it was 120 nM; in assay [4] it was 0.7 nM.

Consider `CCN(C(=O)c1ccc2[nH]c(-c3cc(C)cc(C)c3)c(CCNCCCCc3cccnc3)c2c1)C(C)C`, for which the IC50 in assay [1] was 830 nM; in assay [2], 11 nM; in assay [3] it was 110 nM.

As for `CCN(CCO)C(=O)c1ccc2[nH]c(-c3cc(C)cc(C)c3)c(CCNCCCCc3ccncc3)c2c1`, the IC50 is 1000 nM in assay [1], 36 nM in assay [2] and 260 nM in assay [3].

`CCN(CC)C(=O)c1ccc2[nH]c(-c3cc(C)cc(C)c3)c(CCNCCCCc3ccncc3)c2c1`: the IC50 in assay [1] came to 470 nM; in assay [2], 18 nM; in assay [3], 12 nM; in assay [4] it was 0.5 nM.

Regarding `COCCN(CCOC)C(=O)c1ccc2[nH]c(-c3cc(C)cc(C)c3)c(CCNCCCCc3cccnc3)c2c1`, the IC50 came out at 1300 nM in assay [1], 45 nM in assay [2] and 610 nM in assay [3].

For the compound `Cc1cc(C)cc(-c2[nH]c3ccc(C(C)(C)C(=O)N4CCCC4)cc3c2CCNCCCCc2ccncc2)c1`, the results for the IC50 in assay [5] and in assay [6] were 340 nM and 4.8 nM, respectively.

Turning to `CCN(CC)C(=O)c1ccc2[nH]c(-c3cc(C)cc(C)c3)c(CCNCCCCc3cccnc3)c2c1`, the IC50 in assay [1] is 400 nM; in assay [2], 23 nM; in assay [3], 190 nM; in assay [4], 0.6 nM.

As to `Cc1cc(C)cc(-c2[nH]c3ccc(C(=O)N(CC(C)C)CC(C)C)cc3c2CCNCCCCc2ccncc2)c1`, the IC50 was 380 nM in assay [1], 7.1 nM in assay [2], 80 nM in assay [3] and 0.6 nM in assay [4].

Turning to `CCN(C(=O)c1ccc2[nH]c(-c3cc(C)cc(C)c3)c(CCNCCCCc3ccncc3)c2c1)C1CCCCC1`, the IC50 in assay [1] is 130 nM; in assay [2], 2.8 nM; in assay [3], 22 nM; in assay [4], 0.4 nM.

`Cc1cc(C)cc(-c2[nH]c3ccc(C(=O)N(CC(F)(F)F)CC(F)(F)F)cc3c2CCNCCCCc2ccncc2)c1`: the IC50 worked out at 3600 nM in assay [1], 36 nM in assay [2], 91 nM in assay [3] and 0.6 nM in assay [4].

For `Cc1cc(C)cc(-c2[nH]c3ccc(C(=O)N4C(C)CCC4C)cc3c2CCNCCCCc2cccnc2)c1` (configuration not stated), the results for the concentration for half-maximal inhibition (IC50) in assay [1], in assay [2] and in assay [3] were 360 nM, 3.6 nM and 62 nM, respectively.
